One series in a line: solubility determination. To be noted: for Solubility: 0.15M NaCl, room temperature. It counts as physicochemical.
A further series relates to anti-nisin A antibodies. Nature of the series: competitive ELISA with anti-nisin A antibodies. It counts as binding. An excerpt: Because the only difference between nisin Z and nisin A consists in the His27Asn substitution, the agreement between nisin Z and nisin A in respect of proteolytic sensitivity for these two enzymes is easily explainable. However, there are significant differences in physicochemical characteristics between the two abovementioned lantibiotics.
(In general: An ELISA detects its analyte on a solid surface through an enzyme-linked reagent.)

The test system of series [1] is S. thermophilus Rs. Nature of the series: agar diffusion bioassay, S. thermophilus Rs as indicator. It counts as cell-based. To be noted: S. thermophilus Rs in TGV medium, versus nisin A. As to the method: (§1) The strain NIZO 22186 was isolated from an industrially obtained fermented milk product and identified as a L. lactis strain which ferments sucrose and produces an antimicrobial activity in the culture medium. This antimicrobial activity was determined by the agar diffusion bioassay method [Tramer and Fowler, J. Sci. Food Agric. 15 (1964) 522-528] using Micrococcus flavus DSM 1719 cultured in nutrient broth(Difco) as indicator. The supernatant of a culture of strain […] cultured on lactose M17 medium (Difco) containing 0-5% sucrose or glucose contained an antimicrobial activity which, compared with strain NIZO R5 [Galesloot and Pette, Neth. […] The absorption was monitored at 220 nm. […] The purified peptide material from strain […] and purified commercial nisin A were then hydrolysed for 24 hours in 6N HCl at 110° C. under nitrogen, concentrated by freeze-drying and, after dissolving in 0.2M Na citrate buffer of pH 2.2, analyzed in a LKB 4151 amino acid analyser. […]
(§2) The antimicrobial activity of nisin Z was compared with that of nisin A. In this case, and for further comparisons of the two lantibiotics, use was made of preparations which had been purified with the aid of RP-HPLC [see above] and for which the precise amounts of lantibiotic had been determined by determining the absorption at 220 nm. […]
For orientation: In agar diffusion tests the substance spreads into inoculated agar from a disc or well.

For series [2], the system named is Micrococcus flavus DSM 1719. Nature of the series: agar diffusion bioassay, M. flavus as indicator. It counts as cell-based. As to the method: as §1, §2
The subject of series [3] is Clostridium tyrobutyricum BZ15. As to the kind of experiment: inhibition spectrum, agar diffusion method. It counts as cell-based. From the text:
(§3) The antimicrobial activity of nisin Z was compared with that of nisin A. In this case, and for further comparisons of the two lantibiotics, use was made of preparations which had been purified with the aid of RP-HPLC [see above] and for which the precise amounts of lantibiotic had been determined by determining the absorption at 220 nm. […] The difference comprised both the shape and the gradient of the dose/response curve which relates the amount of lantibiotic added and the diameter of the inhibition zones. In this context it should be pointed out that nisin concentrations which are used in practice are always higher than 2.5 μg/ml [Delves-Broughton, Food Manufacture, March 1987 pp. 63-64]. so that measurements at lower concentrations are more of academic than of practical interest. […] Milk Dairy J., 15 (1961) 127-132]. […] A differentiation between these is made by determining the minimum inhibitory concentrations (MIC) of nisin Z and nisin A which effected growth inhibition in the case of the microorganisms used. In this determination use was also made of M. flavus DSM1719 and S. thermophilus Rs cultured at 37° C. in, respectively, nutrient broth (Difco) and whey permeate containing 0.2% yeast extract. Various amounts of nisin Z and nisin A were added to exponentially growing cultures of both organisms, after which the growth was compared with that of cultures to which no lantibiotic had been added.

Series [4] concerns Lactococcus lactis subsp. cremoris BA3. Nature of the series: inhibition spectrum, agar diffusion method. It counts as cell-based.
From the text: as §3

Series [5] concerns Listeria monocytogenes strain 1, 4B, 13 and 669. As to the kind of experiment: inhibition spectrum, agar diffusion method. It counts as cell-based.
From the text: as §3

Series [6] deals with Brevibacterium linens ATCC 9174. Nature of the series: inhibition spectrum, agar diffusion method. It counts as cell-based.
From the text: as §3

Series [7] relates to Bacillus cereus strains VC1, P7 and C5. Nature of the series: inhibition spectrum, agar diffusion method. It counts as cell-based.
From the text: as §3

The next series deals with trypsin. Nature of the series: sensitivity for proteolytic enzymes (RP-HPLC integrity and residual activity). It counts as physicochemical. The settings on record: nisin Z versus nisin A. As to the method: (§4) The sensitivity of the lantibiotics for some proteolytic enzymes has been described [Hurst, see above]. The sensitivity of nisin Z and nisin A for the proteolytic enzymes trypsin and chymotrypsin were determined by determining the integrity and the biological residual activity of the lantibiotics with the aid of, respectively, RP-HPLC and the agar diffusion assay [see above] after incubation with one of these enzymes.

A further series deals with chymotrypsin. Described as above. It counts as physicochemical. The settings on record: nisin Z versus nisin A. Here is the method:
as §4

Series [8] has as its system Strepococcus thermophilus (S.t.) strain 3218. As to the kind of experiment: MIC bioassay from OD600nm inhibition curves. It counts as cell-based. The settings on record: 3 hours at 37° C., without shaking; less than 1% increase in OD600nm. As to the method:
(§5) The antimicrobial activities referred to above were measured in a bioassay using Micrococcus flavus (M. f.) strain […], Bacillus cereus (B.c.) strain 5227 and Strepococcus thermophilus (S.t.) strain 3218 as indicator strains. Minimum inhibitory concentration (MIC) values were determined in the following way. Cultures of indicator organisms grown overnight were diluted to OD600nm values or 0.05 (M.f.) or 0.025 (S.t. and B.c.) and divided into 10 5 ml portions in tubes. These tubes were inoculated with various amounts of nisin A or (mutant) nisin Z and incubated aerobically under the following conditions (M.f.: 8 hours at 30° C., shaken; S.t.: 3 hours at 37° C., without shaking; B.c.: 6 hours at 30° C., shaken). The OD600nm was then measured. Without the addition of nisin, the final OD600nm values were approximately 1.2 for M.f., 0.5 for S.t. and 0.8 for B.c. All experiments were carried out in triplicate. The MIC values were determined from the inhibition curves by calculating the minimum concentration of (mutant) nisin at which less than a 1% increase in the OD600nm occurred. The solubilities of nisin A, nisin Z and the mutants N27K-nisin Z and H31K-nisin Z were determined in the range between pH 6.0 and pH 7.5. It can be seen from the results that in this range nisin Z is 1.5 to 2 times more soluble than nisin A and that the nisin Z mutants having an additional positive charge are 5 to 10 times more soluble than nisin A (Table 2).

Series [9] deals with Bacillus cereus (B.c.) strain 5227. Nature of the series: MIC bioassay from OD600nm inhibition curves. It counts as cell-based. The settings on record: 6 hours at 30° C., shaken; less than 1% increase in OD600nm. Here is the method: as §5
In series [10] the test system is Micrococcus flavus (M. f.) strain DSM 1790. As to the kind of experiment: MIC bioassay from OD600nm inhibition curves. It counts as cell-based. To be noted: 8 hours at 30° C., shaken; less than 1% increase in OD600nm. Here is the method: as §5
The subject of series [11] is S. thermophilus Rs. As to the kind of experiment: minimum inhibitory concentration in exponentially growing cultures. It counts as cell-based. The settings on record: 37° C., whey permeate containing 0.2% yeast extract.
From the text: as §3, with “Various amounts of nisin Z and nisin A were added to exponentially growing cultures of both organisms, after which the growth was compared with that of cultures to which no lantibiotic had been added.” left out

Another series deals with M. flavus DSM1719. The description is as above. It counts as cell-based. The settings on record: 37° C., nutrient broth.
From the text: as §3, with “Various amounts of nisin Z and nisin A were added to exponentially growing cultures of both organisms, after which the growth was compared with that of cultures to which no lantibiotic had been added.” left out

SMILES strings stand for the structures. In brackets after ≈: the same amount, converted by molar mass.

By Solubility is commonly meant the concentration that dissolves in the medium under given conditions. For `C=C(NC(=O)[C@@H](NC(=O)[C@H](Cc1c[nH]cn1)NC(=O)[C@@H](NC(=O)[C@H](CO)NC(=O)[C@@H]1CS[C@@H](C)[C@H]2NC(=O)[C@H](C)NC(=O)[C@H](NC(=O)[C@H](CCCCN)NC(=O)[C@H](CCSC)NC(=O)[C@H](CC(N)=O)NC(=O)[C@@H]3CS[C@@H](C)[C@@H](NC(=O)[C@H](CCCCN)NC(=O)[C@@H]4CS[C@@H](C)[C@@H](NC(=O)[C@@H]5CSC[C@@H](NC(=O)/C(=C/C)NC(=O)[C@@H](N)[C@@H](C)CC)C(=O)N[C@@H]([C@@H](C)CC)C(=O)NC(=C)C(=O)N[C@@H](CC(C)C)C(=O)N5)C(=O)N5CCC[C@H]5C(=O)NCC(=O)N4)C(=O)NCC(=O)N[C@@H](C)C(=O)N[C@@H](CC(C)C)C(=O)N[C@@H](CCSC)C(=O)NCC(=O)N3)[C@H](C)SC[C@H](NC2=O)C(=O)N[C@@H](CC(N)=O)C(=O)N1)[C@@H](C)CC)C(C)C)C(=O)N[C@@H](CCCCN)C(=O)O` [nisin Z], the “solubility compared with nisin A” value in the series “solubility determination” (alkaline pH) was “greater than that of nisin A”. The Solubility worked out at 2600 µg/mL (≈ 781 µM) in “solubility determination” (pH 6.0), 1500 µg/mL (≈ 450 µM) in “solubility determination” (pH 6.5), 800 µg/mL (≈ 240 µM) in the series “solubility determination” (pH 7.0) and 600 µg/mL (≈ 180 µM) in the series “solubility determination” (pH 7.5). In addition, the “reaction in competitive ELISA” value with anti-nisin A antibodies is “no reaction”. In addition, the “zones of growth inhibition” value in the series on S. thermophilus Rs [1] is listed as “Comparable results”. In [2] (compared with nisin A), the “diffusion rate in an agar medium” value is recorded as “higher diffusion rate”. Besides, in series [2] (concentrations above 0.03 μg/ml, versus same amount of nisin A), the “zones of growth inhibition (diameter of halo)” value is on record as “always found to be greater than those obtained with the same amount of nisin A”. For the same molecule, the “antimicrobial activity (inhibition spectrum)” value in [3], in [4], in series [5], in series [6] and in series [7] was “comparably high antimicrobial activity” throughout. Also, in the series on trypsin, the sensitivity for trypsin result is listed as “comparable”. In addition, in the series with chymotrypsin, the sensitivity for chymotrypsin result is “comparable”. For the same molecule, in series [8], the “Minimum Inhibitory Concentration, S. thermophilus” value was 6 µg/L. In addition, the “Minimum Inhibitory Concentration, B. cereus” value in series [9] is 130 µg/L. In series [10], the “Minimum Inhibitory Concentration, Micrococcus flavus” value amounted to 11 µg/L. The “minimum inhibitory concentration (MIC)” value in the series with S. thermophilus Rs [11] turned out to be 0.03 µg/mL (≈ 0.00901 µM); in the series with M. flavus DSM1719 it was 0.015 µg/mL (≈ 0.0045 µM).

The record behind these values is patent US5594103A, “Lantibiotics similar to nisin a” (Stichting Nederlands Instituut Voor Zuivelonderzoek (NIZO), priority 1991, dated 1997).
